Non-standard residues stand in square brackets, D forms with d. No end group written: not given here.
Legend:
EphB4 = molecular target: T1, EphB4 (Homo sapiens, UniProt P54760); assay: SPR (BIACore) binding of peptides to immobilized EphB4; conditions: rhEphB4-coated chips, 0.16-20 nM equivalent BIDEN-AP, duplicate, visual inspection; poor fitting to 1:1 or 1:2 models (Fig. 3B)
T1 construct: purchased R&D Systems
T1 sequence (P54760 16-987): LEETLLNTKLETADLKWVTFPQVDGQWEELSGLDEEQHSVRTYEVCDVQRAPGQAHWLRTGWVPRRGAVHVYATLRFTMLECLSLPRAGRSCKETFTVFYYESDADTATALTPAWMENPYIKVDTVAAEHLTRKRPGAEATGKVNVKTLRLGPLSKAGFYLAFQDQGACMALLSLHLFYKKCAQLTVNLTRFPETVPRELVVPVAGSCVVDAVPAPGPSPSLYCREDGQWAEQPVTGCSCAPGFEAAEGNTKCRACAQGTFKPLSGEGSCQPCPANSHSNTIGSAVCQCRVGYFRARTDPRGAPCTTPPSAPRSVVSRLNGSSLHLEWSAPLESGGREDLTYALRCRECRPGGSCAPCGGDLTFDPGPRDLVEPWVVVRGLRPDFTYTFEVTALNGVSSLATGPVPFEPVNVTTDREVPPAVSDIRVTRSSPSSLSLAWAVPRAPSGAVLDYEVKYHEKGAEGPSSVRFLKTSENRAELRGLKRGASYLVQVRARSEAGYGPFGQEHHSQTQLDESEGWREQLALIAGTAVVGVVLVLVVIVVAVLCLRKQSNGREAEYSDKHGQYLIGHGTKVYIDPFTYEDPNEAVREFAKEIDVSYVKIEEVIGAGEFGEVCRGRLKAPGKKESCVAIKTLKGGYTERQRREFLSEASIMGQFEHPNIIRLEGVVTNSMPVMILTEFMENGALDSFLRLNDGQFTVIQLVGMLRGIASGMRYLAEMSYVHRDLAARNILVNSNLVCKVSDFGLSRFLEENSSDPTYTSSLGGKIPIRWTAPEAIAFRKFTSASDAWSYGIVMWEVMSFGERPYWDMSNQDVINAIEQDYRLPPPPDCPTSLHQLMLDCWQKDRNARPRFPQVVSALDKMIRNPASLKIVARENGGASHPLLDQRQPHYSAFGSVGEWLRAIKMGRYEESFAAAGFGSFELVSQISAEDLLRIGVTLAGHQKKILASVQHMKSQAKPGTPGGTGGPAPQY
Description: Surface plasmon resonance (SPR) binding and competition assays.
Immunoblotting, immunoprecipitation, and co-immunoprecipitation.

[1] = Transmission electron microscopy particle size; format: physicochemical; conditions: transmission electron microscopy (Fig. 3C)
Protocol: examined with a JEM 1010 transmission electron microscope (JEOL USA, Inc., Peabody, MA) at an accelerating voltage of 80 kV. Digital images were obtained using the AMT Imaging System (Advanced Microscopy Techniques Corp., Danvers, MA).
Surface plasmon resonance (SPR) binding and competition assays. A stock solution of EphB4 in PBS (100 µg/mL) was diluted to 25 µg/mL with 10 mM sodium acetate buffer (pH 4.5) and immobilized to CM5 sensor chips using the amine coupling reaction according to manufacturer-provided procedures (BIACore). Briefly, the surfaces of the chips in flow cells (FC)- 1 and FC-2 were activated by exposing chips to a mixture of 200 mM N-ethyl-N’- dimethylaminopropyl carbodiimide and 50 mM N-hydroxysuccinimide for 7 min. FC-1 was used as a reference surface and was directly deactivated by injecting 1 M ethanolamine at pH 8.5 for 7 min. […]
Binding assays were performed in duplicate at 25°C in HBSEP running buffer. […] Thus, all analyzed samples, including a sample of the running buffer, were additionally injected onto an uncoated reference surface. The association rate (Kon) and dissociation rate (Koff) were calculated by fitting binding chromatogram data using the BIACore evaluation software with a 1:1 Langmuir binding model. […]

RF24_Bev cells = assay: Cell death in bevacizumab-resistant RF24 cells (SYTOX-green flow cytometry); format: cell-based; conditions: VEGF + Bev, SYTOX-negative live cells by flow cytometry (Fig. 4C,D)
Protocol: Figure 4 BIDEN-AP–based agents inhibit tube formation and sensitize resistant endothelial cells to anti-VEGF antibody. (A,B) Tube formation by RF24 cells treated with EFNB2-Fc (2 nM) or BIDEN-AP (15 µM) compared to untreated controls (CTL). Representative data from three independent experiments are presented. (A) Representative microphotographs of tubes formed by RF24 cells are shown (n = 3). Images were taken at × 100 magnification. (B) Quantification of the number of nodes per field in three technical replicates. […] (C) Representative flow cytometry plots from three independent experiments of RF24_Bev cells are shown here. SYTOX-negative staining represents the live cell population.
Given the important role of endothelium in adaptive changes with antiangiogenic therapy, we further tested the effects of BIDEN-AP in overcoming resistance to anti-VEGF therapy in RF24 endothelial cells. To do this, we first established a bevacizumab (Bev)-resistant RF24 cell line (RF24_Bev) selected though continuous Bev treatment at low dose ([…]) for 2 weeks. The RF24_Bev cells were maintained at a Bev concentration of […]. Using flow cytometry with SYTOX-green staining, we quantified the live (SYTOX-negative) vs. dead (SYTOX-positive) populations after treatment with BIDEN-AP or CCPM-BIDEN-AP.

[2] = tested on: orthotopic A2780cp20-Luc ovarian tumors; assay: Orthotopic A2780cp20-Luc ovarian cancer model
Protocol: (A) Schema for in vivo orthotopic A2789cp20-Luc model and treatment. Female nude mice were intraperitoneally inoculated with A2789cp20-Luc tumor cells. Beginning on day 7 after inoculation, each mouse received 10 intraperitoneal injections of BIDEN-AP or CCPM-BIDEN-AP (bold arrows) at a dose 13 mg/kg/injection every other day for a total of 10 doses. Tumor growth was monitored by bioluminescence imaging (IVIS). (B,C) Representative bioluminescence images on day 28 after tumor cell inoculation (B) and corresponding quantification of signal intensity (C) of mice bearing orthotopic A2780cp20-Luc tumors (n = 4). (D,E) Tumor weight (D) and number of tumor nodules (E) per treatment group (n = 8). (F) Images of tumor nodules from each treatment group. Data are expressed as mean ± SD. *p < 0.05, **p < 0.01, ****p < 0.0001 by Student t-test. CTL, untreated controls.
Female athymic nude mice (NCr-nu) were obtained from Harlan Laboratories (Indianapolis, IN) at age 4 to 6 weeks and kept under sterile conditions. For all therapeutic experiments, groups of the mice were inoculated intraperitoneally with A2780cp20-Luc cells (1×10^6 cells/mouse). The mice were treated with BIDEN-AP or CCPM-BIDEN-AP at a dose of 13 mg equivalent drug/kg per injection for a total of 10 doses every other day starting on day 7 after tumor cell inoculation. Untreated mice were used as a control. On day 31, all mice were euthanized and necropsied, and their tumors were harvested. Tumor weight and number and location of tumor nodules were recorded. Tumor tissue was fixed in formalin for paraffin embedding, frozen in optimal cutting temperature medium for frozen slide preparation, or snap-frozen for lysate preparation.
On day 7, day 14, day 21, and day 28 after tumor inoculation, mice received a tail vein injection of D-luciferin (4 mg/kg) and their tumor burden was assessed by luciferase activity using the Xenogen IVIS-200 imaging system (Perkin Elmer, Shelton, CT). The bioluminescence imaging signal generated in mice was quantified using Living Image V.2.11 software and IGOR image analysis software (V.4.02 A; WaveMetrics, Portland, OR). The region of interest was manually selected, and the signal intensity was expressed in terms of the number of photons/s/cm^2.
incubated overnight at 4°C. After washing, the slides were incubated with Alexa488-conjugated goat anti-rabbit secondary antibody for 60 min. Slides were subjected to recombinant terminal
deoxynucleotidyl transferase (rTdT)–mediated dUTP nick-end labeling (TUNEL) by using the
DeadEnd Fluorometric TUNEL System assay kit (Promega) after CD31 staining by immersing
slides in 4% formaldehyde in PBS for 15 min. A 20 µg/mL proteinase K solution (Promega) was
added to each slide (100 µL per slide), and the slides were incubated at room temperature for 8-
10 min. Slides were washed twice with PBS, 100 µL equilibration buffer (Promega) was added to
each, and the slides were again incubated for 5-10 min. The slides were then labeled by adding
50 µL of fluorescein-12-dUTP as a substrate, and the rTdT was added. Each slide was covered
with a plastic coverslip to ensure even distribution of the labeling solution and incubated for 60
min at 37°C in a humidified chamber. The reaction was stopped by immersing slides in 2x SSC
solution (87.7g NaCl, 44.1g sodium citrate, pH 7.0, in 500 mL) for 15 min. After washing with PBS,

Question: Which results are given for “CCPM-BIDEN-AP: nanoconjugate of BIDEN-AP with core-crosslinked polymeric micelles (CCPM) (TN[dY]LFSPNGPIARAW; also: conjugated to core-crosslinked polymeric micelles (CCPM))”?
Answer: binding avidity to immobilized EphB4 (SPR sensorgrams) (EphB4): stronger binding avidity to EphB4 than the unconjugated BIDEN-AP peptide; mean diameter [1]: 24 ± 3 nm; re-sensitization of bevacizumab-resistant endothelial cells to Bev (RF24_Bev cells): re-sensitized these cells to Bev treatment; bioluminescence signal intensity of tumors ([2]; day 28 after inoculation, 13 mg/kg/injection i.p. every other day, 10 doses from day 7, n = 4 (Fig. 5A-C)): significantly reduced the bioluminescence signal intensity; metastatic nodules, comparison of the two agents ([2]; day 31, 13 mg/kg/injection i.p., 10 doses (Fig. 5E,F)): reduced metastatic nodules to a greater extent than BIDEN-AP; tumor growth in the peritoneum (tumor weight and number of metastatic nodules) versus controls ([2]; day 31 after inoculation, 13 mg/kg/injection i.p., 10 doses, n = 8 (Fig. 5D)): significantly reduced tumor growth in the peritoneum; apoptotic cell death in CD31+ endothelial vasculature within tumor stroma ([2]; excised A2780cp20 tumors, CD31/TUNEL co-staining, versus untreated control (Fig. 6A-C)): induced apoptotic cell death; angiogenesis in tumors (microvessel density) ([2]; excised A2780cp20 tumors, CD31 staining (Fig. 6A-C)): suppressed angiogenesis in tumors; tumor cell proliferation (Ki67-positive cells) ([2]; excised A2780cp20 tumors, Ki67 IHC (Fig. 6D,E)): significantly reduced tumor cell proliferation; EphB4 and Crk1 phosphorylation in vivo in tumors ([2]; orthotopic A2780cp20 tumors of treated mice, IP/immunoblot (Fig. S7B)): induce EphB4 and Crk1 phosphorylation

From PMC6965176, “Targeting Forward and Reverse EphB4/EFNB2 Signaling by a Peptide with Dual Functions” (Scientific Reports, 2020)
